Measurements: PubChem BioAssay AID248 (DTP/NCI, 2004)
Where “and” joins values, the source holds several entries; their conditions need not be identical. Equal entries are not always repeated. Toxic doses and inconclusive results are not listed. Rule as the data show it: active = T/C of 150% or more; inactive = T/C below 125%.

Tested on: L1210 leukemia ip in BDF1 mice, survival T/C
Assay: NCI In Vivo Anticancer Drug Screen. Data for tumor model L1210 Leukemia (intraperitoneal) in B6D2F1 (BDF1) mice
Conditions: endpoint: mean survival time, higher = longer survival
How it was run: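 Ratio derived from survival: compound-dosed mice over vehicle-dosed mice, all bearing a transplantable tumor.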

[1] = dose: 100.0 mg/kg/injection, schedule: Q01DX001 (ip), vehicle: saline
[2] = dose: 200.0 mg/kg/injection, schedule: Q01DX001 (ip), vehicle: saline
[3] = dose: 400.0 mg/kg/injection, schedule: Q01DX001 (ip), vehicle: saline
[4] = dose: 50.0 mg/kg/injection, schedule: Q01DX009 (ip), vehicle: saline with Tween-80
[5] = dose: 100.0 mg/kg/injection, schedule: Q01DX009 (ip), vehicle: saline with Tween-80
[6] = dose: 200.0 mg/kg/injection, schedule: Q01DX009 (ip), vehicle: saline with Tween-80
[7] = dose: 100.0 mg/kg/injection, schedule: Q01DX001 (ip), vehicle: Klucel (hydroxypropylcellulose) (HPC)
[8] = dose: 200.0 mg/kg/injection, schedule: Q01DX001 (ip), vehicle: Klucel (hydroxypropylcellulose) (HPC)
[9] = dose: 400.0 mg/kg/injection, schedule: Q01DX001 (ip), vehicle: Klucel (hydroxypropylcellulose) (HPC)
[10] = dose: 100.0 mg/kg/injection, schedule: Q04DX003 (ip), vehicle: other
[11] = dose: 200.0 mg/kg/injection, schedule: Q04DX003 (ip), vehicle: other
[12] = dose: 400.0 mg/kg/injection, schedule: Q04DX003 (ip), vehicle: other
[13] = dose: 100.0 mg/kg/injection, schedule: Q04DX003 (ip), vehicle: saline
[14] = dose: 200.0 mg/kg/injection, schedule: Q04DX003 (ip), vehicle: saline
[15] = dose: 100.0 mg/kg/injection, schedule: Q01DX009 (ip), vehicle: saline
[16] = dose: 100.0 mg/kg/injection, schedule: Q04DX003 (ip), vehicle: saline with Tween-80
[17] = dose: 200.0 mg/kg/injection, schedule: Q04DX003 (ip), vehicle: saline with Tween-80
[18] = dose: 400.0 mg/kg/injection, schedule: Q04DX003 (ip), vehicle: saline with Tween-80
[19] = dose: 50.0 mg/kg/injection, schedule: Q01DX009 (ip), vehicle: saline
[20] = dose: 200.0 mg/kg/injection, schedule: Q01DX009 (ip), vehicle: Klucel (hydroxypropylcellulose) (HPC)
[21] = dose: 400.0 mg/kg/injection, schedule: Q01DX009 (ip), vehicle: saline with Tween-80

Measured: T/C

CCOC(=O)CCN(C(=O)OCC)C(COCc1ccccc1)C(=O)OCC (centres undefined)
inactive: [1] 104 % of control | [2] 104 % of control | [3] 98 % of control

NC(=O)c1cc(=O)n(C2OC(CO)C(O)C2O)c2ncnc(N)c12 (centres undefined)
inactive: dose: 12.5 mg/kg/injection, schedule: Q01DX005 (ip), vehicle: water 104 % of control | dose: 25.0 mg/kg/injection, schedule: Q01DX005 (ip), vehicle: water 90 % of control | dose: 50.0 mg/kg/injection, schedule: Q01DX005 (ip), vehicle: water 95 % of control | dose: 100.0 mg/kg/injection, schedule: Q01DX005 (ip), vehicle: water 98 % of control | dose: 200.0 mg/kg/injection, schedule: Q01DX005 (ip), vehicle: water 95 % of control

COC(=O)CC(=O)C(C)(C)C
inactive: [4] 101 % of control | [5] 101 % of control | [6] 101 % of control

CC(=O)Nc1cc(C)ccc1C
inactive: dose: 50.0 mg/kg/injection, schedule: Q01DX001 (ip), vehicle: Klucel (hydroxypropylcellulose) (HPC) 101 % of control | [7] 91 % of control and 101 % of control | [8] 94 % of control and 104 % of control | [9] 94 % of control

CCN1C(=O)CSC1=S
inactive: [1] 101 % of control | [10] 92 % of control and 96 % of control | [2] 101 % of control | [11] 110 % of control and 89 % of control | [3] 102 % of control | [12] 96 % of control

ClC1C2CC3C1C3C2C(Cl)(Cl)Cl (centres undefined)
inactive: dose: 100.0 mg/kg/injection, schedule: Q04DX002 (ip), vehicle: Klucel (hydroxypropylcellulose) (HPC) 103 % of control | dose: 200.0 mg/kg/injection, schedule: Q04DX002 (ip), vehicle: Klucel (hydroxypropylcellulose) (HPC) 100 % of control | dose: 400.0 mg/kg/injection, schedule: Q04DX002 (ip), vehicle: Klucel (hydroxypropylcellulose) (HPC) 90 % of control

CC1(C)N=C(N)N=C(N)N1NC(=O)c1cccc(Cl)c1
inactive: [13] 101 % of control | [14] 94 % of control

C=CCNC(=S)N(CCC#N)C1CCCCC1
inactive: dose: 100.0 mg/kg/injection, schedule: Q04DX002 (ip), vehicle: saline with Tween-80 101 % of control | dose: 200.0 mg/kg/injection, schedule: Q04DX002 (ip), vehicle: saline with Tween-80 90 % of control | dose: 400.0 mg/kg/injection, schedule: Q04DX002 (ip), vehicle: saline with Tween-80 93 % of control

O=C1NC(c2ccccc2)(c2ccccc2)C(=O)N1CCO
inactive: [1] 100 % of control | [15] 96 % of control | [13] 107 % of control | [2] 92 % of control | dose: 200.0 mg/kg/injection, schedule: Q01DX009 (ip), vehicle: saline 96 % of control | [14] 104 % of control | [3] 102 % of control | dose: 400.0 mg/kg/injection, schedule: Q01DX009 (ip), vehicle: saline 90 % of control | dose: 400.0 mg/kg/injection, schedule: Q04DX003 (ip), vehicle: saline 98 % of control

O=S(=O)(O)c1cc(O)c2c(N=Nc3c(S(=O)(=O)O)cc4cc(S(=O)(=O)O)cc(N=Nc5c(S(=O)(=O)O)cc6cc(S(=O)(=O)O)cc(O)c6c5O)c4c3O)cc(S(=O)(=O)O)cc2c1
inactive: [16] 94 % of control | [17] 96 % of control | [18] 96 % of control

O=C(O)C1C[n+]2ccccc2O1 (centres undefined)
inactive: [19] 116 % of control | [13] 97 % of control | [14] 103 % of control

CN(C)CCNC(=O)CN
inactive: [1] 102 % of control | [2] 107 % of control | [3] 107 % of control

CCCCOC(=O)CCCC(=O)OCCCC
inactive: dose: 100.0 mg/kg/injection, schedule: Q01DX009 (ip), vehicle: Klucel (hydroxypropylcellulose) (HPC) 98 % of control | dose: 100.0 mg/kg/injection, schedule: Q04DX003 (ip), vehicle: Klucel (hydroxypropylcellulose) (HPC) 100 % of control | [20] 97 % of control | dose: 200.0 mg/kg/injection, schedule: Q04DX003 (ip), vehicle: Klucel (hydroxypropylcellulose) (HPC) 101 % of control | dose: 400.0 mg/kg/injection, schedule: Q01DX009 (ip), vehicle: Klucel (hydroxypropylcellulose) (HPC) 95 % of control | dose: 400.0 mg/kg/injection, schedule: Q04DX003 (ip), vehicle: Klucel (hydroxypropylcellulose) (HPC) 101 % of control

c1ccc(-c2c3ccccc3c(-c3ccccc3)c3c2ccc2ccccc23)cc1
inactive: dose: 50.0 mg/kg/injection, schedule: Q01DX009 (ip), vehicle: Klucel (hydroxypropylcellulose) (HPC) 91 % of control | [20] 91 % of control

COC1OC2COc3ccccc3OC2C2C1N2C(=N)N[N+](=O)[O-] (centres undefined)
inactive: dose: 40.0 mg/kg/injection, schedule: Q04DX002 (ip), vehicle: saline 102 % of control | dose: 160.0 mg/kg/injection, schedule: Q04DX002 (ip), vehicle: saline 102 % of control

Cc1c(C(C)(C)c2ccccc2)[nH]c2ccc(C(C)(C)c3ccccc3)cc12
inactive: [1] 88 % of control | [2] 86 % of control | [3] 96 % of control

O=C(O)c1c(Cl)c(Cl)c(Cl)c(Cl)c1Cl
inactive: [5] 103 % of control | [6] 106 % of control | [21] 112 % of control

COc1ccc2nc(NC(=O)NCCCl)sc2c1
inactive: [7] 90 % of control | [8] 95 % of control | [9] 91 % of control

CC(C)COC(=O)COc1ccccc1
inactive: [16] 104 % of control | [17] 104 % of control | [18] 86 % of control

Cc1noc(N)c1[N+](=O)[O-]
inactive: dose: 12.5 mg/kg/injection, schedule: Q01DX009 (ip), vehicle: saline 97 % of control | dose: 25.0 mg/kg/injection, schedule: Q01DX009 (ip), vehicle: saline 109 % of control | [19] 97 % of control | [15] 86 % of control | [10] 92 % of control | [11] 96 % of control | [12] 92 % of control

CCCCCCCCCCCCCCCCCc1nc2nc(Cl)c(Cl)nc2[nH]1
inactive: [4] 91 % of control | [5] 91 % of control | [16] 98 % of control and 89 % of control | [6] 91 % of control | [17] 96 % of control | [21] 93 % of control | [18] 94 % of control and 90 % of control

Cc1c2cc3c(c1O)C(=O)CC(O3)c1ccc(O)c(c1)-c1cccc(c1O)C(=O)OCC1OC(O2)C(O)C(O)C1O (centres undefined)
inactive: dose: 0.13 mg/kg/injection, schedule: Q01DX009 (ip), vehicle: Klucel (hydroxypropylcellulose) (HPC) 104 % of control | dose: 0.25 mg/kg/injection, schedule: Q01DX009 (ip), vehicle: Klucel (hydroxypropylcellulose) (HPC) 97 % of control | dose: 0.5 mg/kg/injection, schedule: Q01DX009 (ip), vehicle: Klucel (hydroxypropylcellulose) (HPC) 98 % of control | dose: 1.0 mg/kg/injection, schedule: Q01DX009 (ip), vehicle: Klucel (hydroxypropylcellulose) (HPC) 103 % of control

O=C(COc1ccccc1)CC(O)(C(F)(F)F)C(F)(F)F
inactive: [16] 97 % of control | [17] 92 % of control
